Results on 1 compound are retold here after patent US4818748A, “Renin inhibitors and aminoacid and aminoaldehyde derivatives” (Bayer Aktiengesellschaft, priority 1986, dated 1989).

For test [1], the system named is spontaneously hypertensive rats. Kind of test: In vivo test: systolic blood pressure of conscious spontaneously hypertensive rats, indirect tail-cuff measurement. On the set-up: species or system rat. The settings on record: conscious SHR; for systolic blood pressure: oral dose of 100 mg/kg. The source says: From the current state of the art, it was not to be expected that the compounds according to the invention have a hypotensive action when administered orally. […] [See Table 1].
The blood pressure of the conscious animals is thereby measured by the customary indirect measurement method on the tail, using an inflatable occlusion cuff and an infra-tone pulse recorder [compare H. Breuninger: Methoden zur unblutigen Messung des Blutdrucks an Kleintieren (Methods of bloodless measurement of the blood pressure on small animals), Arzneimittleforschung 6, 222-225 (1956)]. The substance is administered as a suspension in 1% strength Tylose by means of a stomach tube. The systolic blood pressure is measured before and 1, 2, 4 and 6 hours after administration.

Test [2] concerns sodium-deficient spontaneously hypertensive rats. Kind of test: Mean arterial pressure in anaesthetized sodium-deficient spontaneously hypertensive rats. It is filed as in vivo, rat. The settings on record: intragastral administration; sodium-deficient SHR (furosemide in drinking water 14 days), anaesthetized with Inactin.
Test [3] concerns the target T1, endogenous resin from human plasma (Homo sapiens, UniProt P00797).
T1 construct: endogenous resin from human plasma; from tissue; host or cells: pooled human plasma (EDTA)
T1 sequence (P00797 67-406): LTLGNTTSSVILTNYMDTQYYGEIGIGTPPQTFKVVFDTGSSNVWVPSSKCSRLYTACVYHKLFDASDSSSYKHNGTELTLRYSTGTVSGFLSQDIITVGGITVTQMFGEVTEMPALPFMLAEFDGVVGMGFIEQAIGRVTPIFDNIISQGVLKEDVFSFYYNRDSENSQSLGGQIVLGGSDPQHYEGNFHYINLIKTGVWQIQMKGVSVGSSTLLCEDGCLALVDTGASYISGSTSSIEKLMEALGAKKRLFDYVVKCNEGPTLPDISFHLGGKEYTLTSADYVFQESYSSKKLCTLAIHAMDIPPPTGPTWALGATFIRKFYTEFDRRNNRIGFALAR
In words: In vitro test: inhibition of plasma renin activity (angiotensin I formation, radioimmunoassay). The test is classed as biochemical. The protocol:
The inhibitory strength of the peptides according to the invention against endogenous resin from human plasma is determined in vitro. Pooled human plasma is obtained, with the addition of ethylenediaminetetraacetic acid (EDTA) as an anticoagulant and is stored at -20° C. The plasma renin activity (PRA) is determined as the rate of formation of angiotensin I from endogenous angiotensinogen and renin after incubation at 37° C. The reaction solution contains 150 μl of plasma, 3 μl of 6.6% strength 8-hydroxyquinoline sulphate solution, 3 μl of 10% strength dimercaprol solution and 144 μl of sodium phosphate buffer (0.2M; 0.1% of EDTA; pH 5.6) with or without the substances according to the invention in various concentrations. The angiotensin I formed per unit time is determined by radioimmunoassay (Sorin Biomedica, Italy). The percentage inhibition of the plasma renin activity is calculated by comparison of the amount of angiotensin I formed here with or without the substances according to the invention.

In the case of `CC[C@H](C)[C@H](NC(=O)C[C@H](O)[C@H](Cc1ccc([N+](=O)[O-])cc1)NC(=O)[C@H](Cc1c[nH]cn1)NC(=O)[C@H](Cc1ccccc1)NC(=O)OC(C)(C)C)C(=O)OC` [Example 12, N-tert.-Butoxycarbonyl-phenylalanyl-L-histidyl-4S-amino-3S-hydroxy-5-(4-nitrophenyl)pentanoyl-L-isoleucine methyl ester], the systolic blood pressure came to 165.0 mm Hg in test [1] (0 hours (before administration)); 163.1 mm Hg in test [1] (1 hour after administration); 161.8 mm Hg in test [1] (2 hours after administration); 151.8 mm Hg in test [1] (4 hours after administration); 148.5 mm Hg in test [1] (6 hours after administration). The “antihypertensive action (in words)” value in test [1] (oral administration of 100 mg/kg) is on record as “antihypertensive action is observed”. Also, in test [2], the “mean arterial pressure (in words)” value is “reduces the mean arterial pressure”. The “inhibition of renin activity in vitro (in words)” value in test [3] is “inhibit the renin activity in vitro”.
